In brackets after ≈: the same amount, converted by molar mass.
Tests used:
[1] = system: LNCaP; experiment: Cytotoxicity against human LNCAP cells assessed as cell growth inhibition after 48 hrs by MTT assay; format: functional
[2] = target: Dual specificity mitogen-activated protein kinase kinase 1 (Homo sapiens) (UniProt Q02750); experiment: Inhibition of human MKK1 (2 to 393 residues) assessed as remaining enzyme activity at 50 uM after 30 mins by 33P-ATP filter-binding assay
[3] = target: Angiopoietin-1 receptor (Homo sapiens) (UniProt Q02763); experiment: Inhibition of human TIE2 (771 to 1124 residues) assessed as remaining enzyme activity at 50 uM after 30 mins by 33P-ATP filter-binding assay
[4] = system: MDA-MB-468; experiment: Cytotoxicity against human MDA-MB-468 cells assessed as cell growth inhibition after 48 hrs by MTT assay; format: functional; conditions: MDA-MB-468, 48 h
[5] = target: Phosphorylase kinase (Homo sapiens) (UniProt P15735+P46020+P46019+Q93100+Q16816); experiment: Inhibition of human PHK assessed as remaining enzyme activity at 50 uM after 30 mins by 33P-ATP filter-binding assay; format: protein-complex assay
[6] = Cell cycle arrest in human HL60 cells assessed as accumulation at G1 phase at 10 uM (reference value: 59 %); format: functional, cell-based; conditions: HL-60
[7] = target: RAC-alpha serine/threonine-protein kinase (Homo sapiens) (UniProt P31749); experiment: Inhibition of human PKBalpha assessed as remaining enzyme activity at 50 uM after 30 mins by 33P-ATP filter-binding assay
[8] = Cell cycle arrest in human HL60 cells assessed as accumulation at G1 phase at 5 uM (reference value: 59 %); format: functional, cell-based; conditions: HL-60
[9] = Stability in pH 4 buffer at 120 ug/ml after 8 hrs by RP-HPLC analysis; format: physicochemical; conditions: pH 4, 8 h
[10] = target: Insulin-like growth factor 1 receptor (Homo sapiens) (UniProt P08069); experiment: Inhibition of human IGF1R (954 to 1367 residues) assessed as remaining enzyme activity at 50 uM after 30 mins by 33P-ATP filter-binding assay
[11] = target: Mitogen-activated protein kinase 15 (Homo sapiens) (UniProt Q8TD08); experiment: Inhibition of human ERK8 (2 to 544 residues) assessed as remaining enzyme activity at 50 uM after 30 mins by 33P-ATP filter-binding assay
Chain of Mitogen-activated protein kinase 15 (Homo sapiens) (Q8TD08 whole entry, the tested form may be a part): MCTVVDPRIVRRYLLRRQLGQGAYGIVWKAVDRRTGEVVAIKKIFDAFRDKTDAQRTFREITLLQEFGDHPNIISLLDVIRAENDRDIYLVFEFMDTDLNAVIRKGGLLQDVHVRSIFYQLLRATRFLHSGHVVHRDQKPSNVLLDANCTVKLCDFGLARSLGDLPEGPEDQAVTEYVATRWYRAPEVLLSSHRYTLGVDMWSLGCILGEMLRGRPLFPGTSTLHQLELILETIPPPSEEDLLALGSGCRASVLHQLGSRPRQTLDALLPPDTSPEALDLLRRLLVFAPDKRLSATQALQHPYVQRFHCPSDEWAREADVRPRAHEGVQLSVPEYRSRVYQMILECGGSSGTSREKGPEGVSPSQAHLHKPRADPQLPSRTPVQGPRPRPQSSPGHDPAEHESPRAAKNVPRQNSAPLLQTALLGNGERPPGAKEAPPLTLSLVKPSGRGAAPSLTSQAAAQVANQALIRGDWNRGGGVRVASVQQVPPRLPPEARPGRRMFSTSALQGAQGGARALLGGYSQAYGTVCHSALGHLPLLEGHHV

[12] = target: Tyrosine-protein kinase Lck (Homo sapiens) (UniProt P06239); experiment: Inhibition of human LCK (2 to 509 residues) assessed as remaining enzyme activity at 50 uM after 30 mins by 33P-ATP filter-binding assay
Chain of Tyrosine-protein kinase Lck (Homo sapiens) (P06239 2-509 limits assumed): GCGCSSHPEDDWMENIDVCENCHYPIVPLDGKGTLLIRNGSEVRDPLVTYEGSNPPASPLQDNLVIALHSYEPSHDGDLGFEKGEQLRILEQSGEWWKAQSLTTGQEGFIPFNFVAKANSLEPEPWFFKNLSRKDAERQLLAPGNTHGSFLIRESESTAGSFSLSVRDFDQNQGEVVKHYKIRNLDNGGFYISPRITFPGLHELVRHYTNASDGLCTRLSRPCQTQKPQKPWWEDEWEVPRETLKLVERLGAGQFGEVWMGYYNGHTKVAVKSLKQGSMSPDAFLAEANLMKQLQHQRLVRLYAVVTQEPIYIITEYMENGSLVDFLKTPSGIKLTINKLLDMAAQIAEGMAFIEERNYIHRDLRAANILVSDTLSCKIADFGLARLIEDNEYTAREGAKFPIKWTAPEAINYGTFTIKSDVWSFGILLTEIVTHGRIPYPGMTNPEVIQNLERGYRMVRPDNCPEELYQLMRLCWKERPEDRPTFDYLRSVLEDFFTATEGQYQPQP

[13] = Cell cycle arrest in human HL60 cells assessed as accumulation at S phase at 5 uM (reference value: 36 %); format: functional, cell-based; conditions: HL-60
[14] = Cytotoxicity against human PC3 cells assessed as cell growth inhibition after 48 hrs by MTT assay; format: functional; conditions: PC-3, 48 h
[15] = target: Mitogen-activated protein kinase 8 (Homo sapiens) (UniProt P45983); experiment: Inhibition of human JNK1 (1 to 384 residues) assessed as remaining enzyme activity at 50 uM after 30 mins by 33P-ATP filter-binding assay
Chain of Mitogen-activated protein kinase 8 (Homo sapiens) (P45983 whole entry, the tested form may be a part): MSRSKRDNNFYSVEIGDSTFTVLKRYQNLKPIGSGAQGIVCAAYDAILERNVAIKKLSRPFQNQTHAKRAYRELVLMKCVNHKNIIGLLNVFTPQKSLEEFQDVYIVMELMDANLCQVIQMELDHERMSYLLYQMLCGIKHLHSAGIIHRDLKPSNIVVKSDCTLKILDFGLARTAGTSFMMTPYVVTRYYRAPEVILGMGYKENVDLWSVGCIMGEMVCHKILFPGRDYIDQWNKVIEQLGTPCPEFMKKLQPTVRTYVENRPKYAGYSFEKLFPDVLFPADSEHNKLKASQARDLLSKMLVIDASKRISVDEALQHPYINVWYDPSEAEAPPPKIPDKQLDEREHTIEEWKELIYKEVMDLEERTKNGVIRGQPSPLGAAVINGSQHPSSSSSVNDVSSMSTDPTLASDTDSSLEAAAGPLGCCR

[16] = Cytotoxicity against human THP1 cells assessed as cell growth inhibition after 48 hrs by MTT assay; format: functional; conditions: THP-1, 48 h
[17] = Stability in pH 7.4 buffer at 120 ug/ml after 8 hrs by RP-HPLC analysis; format: physicochemical; conditions: pH 7.4, 8 h
[18] = target: Serine/threonine-protein kinase PLK1 (Homo sapiens) (UniProt P53350); experiment: Inhibition of human PLK1 (1 to 603 residues) assessed as remaining enzyme activity at 50 uM after 30 mins by 33P-ATP filter-binding assay
Chain of Serine/threonine-protein kinase PLK1 (Homo sapiens) (P53350 whole entry, the tested form may be a part): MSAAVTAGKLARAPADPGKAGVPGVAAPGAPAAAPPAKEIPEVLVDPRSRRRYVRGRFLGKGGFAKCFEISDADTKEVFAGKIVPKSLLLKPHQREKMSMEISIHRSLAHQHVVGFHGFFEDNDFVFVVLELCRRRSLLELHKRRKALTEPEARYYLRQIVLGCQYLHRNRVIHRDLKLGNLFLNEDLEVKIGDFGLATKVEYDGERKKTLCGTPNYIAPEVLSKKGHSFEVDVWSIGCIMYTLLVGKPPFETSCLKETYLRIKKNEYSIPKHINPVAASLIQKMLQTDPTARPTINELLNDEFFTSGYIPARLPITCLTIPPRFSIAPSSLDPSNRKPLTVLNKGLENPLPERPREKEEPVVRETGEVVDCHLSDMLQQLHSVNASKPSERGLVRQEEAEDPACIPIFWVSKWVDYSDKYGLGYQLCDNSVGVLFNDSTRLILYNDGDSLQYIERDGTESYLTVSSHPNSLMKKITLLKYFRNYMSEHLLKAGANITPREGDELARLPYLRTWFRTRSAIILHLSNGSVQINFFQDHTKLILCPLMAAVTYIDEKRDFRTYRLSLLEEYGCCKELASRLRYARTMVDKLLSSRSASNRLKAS

[19] = target: Mitogen-activated protein kinase 10 (Homo sapiens) (UniProt P53779); experiment: Inhibition of human JNK3 (40 to 422 residues) assessed as remaining enzyme activity at 50 uM after 30 mins by 33P-ATP filter-binding assay
[20] = Stability in SGF solution at 120 ug/ml after 8 hrs by RP-HPLC analysis; format: physicochemical; conditions: simulated gi fluid
[21] = target: Death-associated protein kinase 1 (Homo sapiens) (UniProt P53355); experiment: Inhibition of human DAPK1 (1 to 363) assessed as remaining enzyme activity at 50 uM after 30 mins by 33P-ATP filter-binding assay
[22] = target: Serine/threonine-protein kinase PAK 6 (Homo sapiens) (UniProt Q9NQU5); experiment: Inhibition of human PAK6 (2 to 681 residues) assessed as remaining enzyme activity at 50 uM after 30 mins by 33P-ATP filter-binding assay
[23] = Cytotoxicity against human SNB75 cells assessed as cell growth inhibition after 48 hrs by MTT assay; format: functional; conditions: SNB-75, 48 h
[24] = target: High affinity nerve growth factor receptor (Homo sapiens) (UniProt P04629); experiment: Inhibition of human TRKA (441 to 760 residues) assessed as remaining enzyme activity at 50 uM after 30 mins by 33P-ATP filter-binding assay
[25] = target: Receptor tyrosine-protein kinase erbB-4 (Homo sapiens) (UniProt Q15303); experiment: Inhibition of human HER4 (706 to 991 residues) assessed as remaining enzyme activity at 50 uM after 30 mins by 33P-ATP filter-binding assay
[26] = target: 3-phosphoinositide-dependent protein kinase 1 (Homo sapiens) (UniProt O15530); experiment: Inhibition of human PDK1 (52 to 556 residues) assessed as remaining enzyme activity at 50 uM after 30 mins by 33P-ATP filter-binding assay
[27] = Partition coefficient, logP of the compound in water/PBS buffer at 25 degC by retention time method; format: physicochemical
[28] = Thermodynamic equilibrium solubility in PBS buffer at 120 ug/ml at pH 7.4 by HPLC analysis; format: physicochemical; conditions: read-out: Therm_solubility
[29] = target: MAP/microtubule affinity-regulating kinase 3 (Homo sapiens) (UniProt P27448); experiment: Inhibition of human MARK3 (2 to 729 residues) assessed as remaining enzyme activity at 50 uM after 30 mins by 33P-ATP filter-binding assay
Chain of MAP/microtubule affinity-regulating kinase 3 (Homo sapiens) (P27448 whole entry, looked up, the tested form may be a part): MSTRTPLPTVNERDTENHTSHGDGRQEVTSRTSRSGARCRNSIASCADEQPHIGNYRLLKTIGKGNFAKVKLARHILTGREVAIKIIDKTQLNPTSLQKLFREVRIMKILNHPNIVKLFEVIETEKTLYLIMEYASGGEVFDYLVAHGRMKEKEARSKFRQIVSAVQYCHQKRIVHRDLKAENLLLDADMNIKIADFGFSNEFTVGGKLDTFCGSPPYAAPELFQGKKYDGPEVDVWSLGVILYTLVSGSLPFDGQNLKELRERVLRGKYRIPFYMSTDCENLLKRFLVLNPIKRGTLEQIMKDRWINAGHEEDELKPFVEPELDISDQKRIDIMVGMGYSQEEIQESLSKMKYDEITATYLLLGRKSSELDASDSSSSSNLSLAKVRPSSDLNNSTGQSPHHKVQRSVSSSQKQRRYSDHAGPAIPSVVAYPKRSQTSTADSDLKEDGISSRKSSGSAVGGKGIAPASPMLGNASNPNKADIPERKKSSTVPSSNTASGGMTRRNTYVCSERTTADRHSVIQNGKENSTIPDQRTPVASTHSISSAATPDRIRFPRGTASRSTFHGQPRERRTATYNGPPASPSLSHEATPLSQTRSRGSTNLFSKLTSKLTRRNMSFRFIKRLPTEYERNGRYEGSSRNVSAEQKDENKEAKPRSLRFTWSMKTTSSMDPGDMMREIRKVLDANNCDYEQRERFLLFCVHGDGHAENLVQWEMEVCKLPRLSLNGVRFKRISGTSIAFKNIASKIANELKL

[30] = target: Mitogen-activated protein kinase kinase kinase 5 (Homo sapiens) (UniProt Q99683); experiment: Inhibition of human ASK1 (670 to 950 residues) assessed as remaining enzyme activity at 50 uM after 30 mins by 33P-ATP filter-binding assay
[31] = Cytotoxicity against human FR2 cells assessed as cell growth inhibition after 48 hrs by MTT assay; format: cell-based
[32] = target: Mitogen-activated protein kinase 14 (Homo sapiens) (UniProt Q16539); experiment: Inhibition of human p38alpha MAPK (1-360 residues) assessed as remaining enzyme activity at 50 uM after 30 mins by 33P-ATP filter-binding assay
Chain of Mitogen-activated protein kinase 14 (Homo sapiens) (Q16539 whole entry, the tested form may be a part): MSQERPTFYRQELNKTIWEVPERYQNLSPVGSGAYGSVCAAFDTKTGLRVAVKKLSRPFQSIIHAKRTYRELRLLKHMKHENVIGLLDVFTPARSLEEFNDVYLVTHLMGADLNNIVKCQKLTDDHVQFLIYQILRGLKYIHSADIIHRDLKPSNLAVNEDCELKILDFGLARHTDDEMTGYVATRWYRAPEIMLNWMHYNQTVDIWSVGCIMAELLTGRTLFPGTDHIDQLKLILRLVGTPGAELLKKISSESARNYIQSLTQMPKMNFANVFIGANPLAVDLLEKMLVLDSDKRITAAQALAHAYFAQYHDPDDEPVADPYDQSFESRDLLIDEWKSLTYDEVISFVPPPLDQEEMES

[33] = target: Serine/threonine-protein kinase Chk2 (Homo sapiens) (UniProt O96017); experiment: Inhibition of human CHK2 (5 to 543 residues) assessed as remaining enzyme activity at 50 uM after 30 mins by 33P-ATP filter-binding assay
Chain of Serine/threonine-protein kinase Chk2 (Homo sapiens) (O96017 whole entry, the tested form may be a part): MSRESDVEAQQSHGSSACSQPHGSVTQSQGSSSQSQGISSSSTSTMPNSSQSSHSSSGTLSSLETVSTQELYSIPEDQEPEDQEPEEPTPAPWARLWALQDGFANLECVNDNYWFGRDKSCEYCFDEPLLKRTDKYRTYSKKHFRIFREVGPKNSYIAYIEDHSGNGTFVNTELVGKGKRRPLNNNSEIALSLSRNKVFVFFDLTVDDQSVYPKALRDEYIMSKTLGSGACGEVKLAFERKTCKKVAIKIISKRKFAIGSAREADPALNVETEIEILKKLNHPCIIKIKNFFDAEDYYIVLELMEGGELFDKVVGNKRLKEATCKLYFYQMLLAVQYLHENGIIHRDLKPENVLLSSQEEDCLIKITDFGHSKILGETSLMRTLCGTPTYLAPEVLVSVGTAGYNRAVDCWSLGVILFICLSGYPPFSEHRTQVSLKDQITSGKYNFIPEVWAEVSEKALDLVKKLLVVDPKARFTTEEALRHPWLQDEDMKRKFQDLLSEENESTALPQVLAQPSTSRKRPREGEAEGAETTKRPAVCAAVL

[34] = target: Eukaryotic elongation factor 2 kinase (Homo sapiens) (UniProt O00418); experiment: Inhibition of human EF2K (2 to 725 residues) assessed as remaining enzyme activity at 50 uM after 30 mins by 33P-ATP filter-binding assay
Chain of Eukaryotic elongation factor 2 kinase (Homo sapiens) (O00418 whole entry, the tested form may be a part): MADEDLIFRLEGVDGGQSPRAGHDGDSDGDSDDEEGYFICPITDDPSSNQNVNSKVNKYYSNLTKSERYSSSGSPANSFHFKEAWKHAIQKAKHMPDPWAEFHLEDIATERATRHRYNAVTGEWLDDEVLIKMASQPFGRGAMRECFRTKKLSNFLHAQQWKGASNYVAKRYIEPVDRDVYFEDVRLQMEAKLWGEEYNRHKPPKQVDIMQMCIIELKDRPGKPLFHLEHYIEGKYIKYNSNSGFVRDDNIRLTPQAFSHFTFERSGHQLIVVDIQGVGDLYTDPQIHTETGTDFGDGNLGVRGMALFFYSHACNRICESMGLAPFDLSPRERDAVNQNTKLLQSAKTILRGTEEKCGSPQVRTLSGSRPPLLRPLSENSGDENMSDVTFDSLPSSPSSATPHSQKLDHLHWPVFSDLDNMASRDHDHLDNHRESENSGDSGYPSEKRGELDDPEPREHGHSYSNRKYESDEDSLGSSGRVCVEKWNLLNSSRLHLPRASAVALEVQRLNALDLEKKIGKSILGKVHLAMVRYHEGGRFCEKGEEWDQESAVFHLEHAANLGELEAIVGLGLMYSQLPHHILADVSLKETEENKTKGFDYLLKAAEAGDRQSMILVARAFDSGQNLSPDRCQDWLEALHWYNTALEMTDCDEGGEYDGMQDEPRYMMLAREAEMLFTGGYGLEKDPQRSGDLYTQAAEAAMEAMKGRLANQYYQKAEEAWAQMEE

Chain of Dual specificity mitogen-activated protein kinase kinase 1 (Homo sapiens) (Q02750 whole entry, the tested form may be a part): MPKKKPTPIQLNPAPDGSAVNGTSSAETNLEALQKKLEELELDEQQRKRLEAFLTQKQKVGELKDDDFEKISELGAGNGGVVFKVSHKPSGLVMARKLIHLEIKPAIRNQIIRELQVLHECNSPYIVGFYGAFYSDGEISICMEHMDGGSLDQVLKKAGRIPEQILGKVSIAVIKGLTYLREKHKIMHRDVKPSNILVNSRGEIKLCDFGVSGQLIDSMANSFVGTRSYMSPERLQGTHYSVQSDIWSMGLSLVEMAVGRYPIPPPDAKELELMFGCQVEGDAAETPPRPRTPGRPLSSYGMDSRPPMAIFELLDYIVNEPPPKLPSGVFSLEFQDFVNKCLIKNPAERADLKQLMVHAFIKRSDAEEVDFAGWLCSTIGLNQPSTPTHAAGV

In the case of `Cc1cc(=O)c2c(O)cc(O)c([C@H]3CCN(C)C[C@H]3O)c2o1` [ROHITUKINE], the GI50 [1] is reported as 30 µM, the Activity [2] is reported as 27% and the Activity [3] is reported as 80%. The GI50 [4] was 17 µM, the Activity [5] was 23% and the Activity [6] was 48%. For the same molecule, the Activity [7] was 76%, the Activity [8] was 56% and the Stability [9] was “Stable”. The Activity [10] was 113%, the Activity [11] was 19% and the Activity [12] was 45%. It also gave an Activity [13] of 43%, a GI50 [14] of 19 µM and an Activity [15] of 96%. The GI50 [16] was 28 µM, the Stability [17] was “Stable” and the Activity [18] was 96%. The Activity [19] was 87%, the Stability [20] was “Stable” and the Activity [21] was 96%. The Activity [22] was 79%, the GI50 [23] was 22 µM and the Activity [24] was 89%. It also gave an Activity [25] of 79%, an Activity [26] of 90% and a logP [27] of 1.01. For the same molecule, the solubility thermodynamic [28] was 16.9 mg/mL (≈ 55.5 mM), the Activity [29] was 41% and the Activity [30] was 96%. The GI50 at 48 h [31] was over 50 µM, the Activity [32] was 69% and the Activity [33] was 60%. It also gave an Activity [34] of 84%.

Source: ChEMBL document CHEMBL3826966, “A chromatography-free isolation of rohitukine from leaves of Dysoxylum binectariferum: Evaluation for in vitro cytotoxicity, Cdk inhibition and physicochemical properties” (Bioorg Med Chem Lett, 2016)
